In patent publication US12144896B2, “Drug delivery system” (INSERM (INSTITUT NATIONAL DE LA SANTÉ ET DE LA RECHERCHE …, priority 2018, dated 2024):
Several values for one entry are separate records, joined by “and”; a condition that tells them apart may be missing. Equal entries are not always repeated.

Columns and labels:
HT-29 cells = experiment: MTS cell viability test on HT-29 cells; type: cell-based, Human; settings: HT-29, 24 h incubation at 37° C., 0-200 μM
Method: (§1) Human lung alveolar carcinoma A549 cells, provided by Prof. L. Migliore, University of Pisa, were grown in Ham's F12 medium supplemented with 10% Fetal Bovine Serum (FBS), 1 mM Gln, and antibiotics. Human colorectal adenocarcinoma HT-29 cells, provided by Prof. P. Petronini, University of Parma, were grown in DMEM High (glucose 4.5 g/1) supplemented with 10% FBS, 2 mM Gln and antibiotics. Cells were incubated at 37° C. at 5% CO2; after thawing, all cells were used for less than ten passages.
(§2) 3.5×10^3 B6KPC3 and A549 cells and 7.5×10^3 HT-29 cells were seeded into 96-well plates. […] After 24 h, cell viability was evaluated through MTS Cell Proliferation Colorimetric Assay Kit (Novus Biologicals, Abingdon, UK). […] In preliminary experiments the time of exposure to MTS (1 h for HT-29 and 3 h for A549 cells) was determined according to the metabolism of each cell type. Absorbance was measured at 492 nm with a microplate reader (EnSpire® Multimode Plate Reader, Perkin Elmer, Boston, Mass., USA).
(§3) Cell viability (CV) percentage was evaluated through the following formula: CV (%)=(Absorbance(treated wells))/(Absorbance(control wells))×100 with Absorbance (control wells) considered the absorbance of untreated cells incubated in medium without drugs. […]
(§4) Oxaliplatin, DACHPt, and Blank nanoparticles are thus used as controls. Viability was then evaluated with the MTS assay (see Material and Methods). […]

B6KPC3 cells = experiment: MTS cell viability test on B6KPC3 cells; type: cell-based; settings: B6KPC3, 24 h incubation at 37° C., 0-200 μM
Method: 3.5×10^3 B6KPC3 and A549 cells and 7.5×10^3 HT-29 cells were seeded into 96-well plates. […] After 24 h, cell viability was evaluated through MTS Cell Proliferation Colorimetric Assay Kit (Novus Biologicals, Abingdon, UK). Briefly, medium was removed, and 100 μL of MTS solution diluted 1:10 in serum-free medium were added in each well. In preliminary experiments the time of exposure to MTS (1 h for HT-29 and 3 h for A549 cells) was determined according to the metabolism of each cell type. Absorbance was measured at 492 nm with a microplate reader (EnSpire® Multimode Plate Reader, Perkin Elmer, Boston, Mass., USA).
Cell viability (CV) percentage was evaluated through the following formula: CV (%)=(Absorbance(treated wells))/(Absorbance(control wells))×100 with Absorbance (control wells) considered the absorbance of untreated cells incubated in medium without drugs. G.3 Results for Viability Studies on HT-29, A549 and B6KPC3 Cells: MTS Test
Oxaliplatin, DACHPt, and Blank nanoparticles are thus used as controls. Viability was then evaluated with the MTS assay (see Material and Methods). Data were expressed as % of control (untreated cells). Data are means±SD of two experiments with 3 determinations each.

A549 cells = experiment: MTS cell viability test on A549 cells; type: cell-based, Human; settings: A549, 24 h incubation at 37° C., 0-200 μM
Method: as §1, §2, §3, §4

[1] = clinical studies, end of a 2-hr infusion; cited from earlier work
[2] = Pharmacokinetics after IV bolus injection, two-compartment analysis of plasma Pt; settings: mice, 35 μg Pt/mice
Method: At specific time points, 15, 30 min, 1, 1.5, 3, 5, 8 and 12 h post dose, 200 μl of blood was taken and separated from plasma. Pt content was detected using ICP/MS.
A first-order, two-compartment model with bolus administration, expressed in terms of CL and V was applied to fit the data, using 1/yhat^2 as weighting function.
Based on the profile obtained (FIGS. 3A and 3B), the data were analyzed using a two-compartmental model.

[3] = test system: multicellular HT116 spheroids; experiment: Multicellular tumor spheroid (MCTS) volume follow-up; type: cell-based
From the text: Multi cellular tumor spheroids (MCTS) were formed according to a previous published method [Virgone-Carlotta A, Lemasson M, Mertani H C, et al. In-depth phenotypic characterization of multicellular tumor spheroids: Effects of 5-Fluorouracil. PLOS ONE. 2017; 12(11):e0188100. doi: 10.1371/journal.pone.0188100]. Briefly, MCTS were formed using HTC-116 cell line in Ultra Low Attachment (ULA) 96 wells Round-Bottom plate (Greiner bio-one) to avoid cell-substrate attachment. The cells were trypsinized and were counted using a Malassez grid in order to obtain 2,400 cells per milliliter. This concentration of cells (i.e., 480 cells per well in a volume of 200 μL) was chosen in order to obtain a single spheroid per well, with a spheroid diameter at the end of the experimentation not exceeding 500 μm. The plate was centrifuged for 5 minutes at 1,200 g at room temperature to initiate the formation of spheroids. The plate was placed in the incubator under agitation at 37° C. and 5% CO2 during the whole experiment. At the end of the first day after seeding, 100 μL of culture medium was added to ensure proper 3D growth. […] The treatment was renewed during 3 days. Results are shown on FIGS. 4 to 6.
Blank NP were also used to assess nonspecific toxicity that could arise from the system. MCTS were monitored at day 0, 1, 2, 3, 4, and 7 day post treatment. Eight spheroids (n=8) were probed at each concentration (5, 25 and 50 μM). A ring of detaching cells appeared spontaneously after one day of treatment. The spheroids were transferred into new well plates to eliminate mechanically this uncohesive peripheral cell layer and to renew the drug and culture medium. Therefore, the reduction in volume monitored during treatment arose from a loss of viability as well as from a loss of cohesiveness.
We performed edge detection using a sobel threshold for each spheroid using the Image J software. The resulting binary images were fitted to an ellipse of major (LM) and minor (Lm) axes using the ImageJ “Analyse Particles” plugins. From this, a mean diameter was calculated, D=(LM+Lm)/2. The volume V was then determined assuming that the spheroids are spherical V=πD3/6. Results are shown on FIG. 7.
The volume of MCTS was evaluated from phase contrast microscopy images as a readout of cytotoxic effect. The data reported in FIGS. 4-6 represent normalized MCTS volume for different treatments with respect to the control volume (MCTS not treated). Three different drug concentrations were tested: 5, 25 and 50 μM.

Question: With `NC1CCCCC1N.[Pt+2]` (stereo not shown) [DACHPt, di-aqua(1,2-diaminocyclohexane)platinum(II)] as the compound, how does the IC50 (HT-29 cells) read?
Answer: The IC50 was 39 µM.

Question: Which results are given for “(R,R)-1,2-diaminocyclohexane(ethanedioato-O,O)platinum [Oxaliplatin]”?
Answer: IC50 (B6KPC3 cells): 23 µM; IC50 (HT-29 cells): 74 µM; IC50 (A549 cells): 11 µM; IC50 (A549 cells; listed as oxaliplatin reference solution): 12 µM; administered platinum present in the systemic circulation [1]: 15%; AUMC [2]: 65.1 ± 23.8 hr*hr*mg/L; K12 (rate constant central to peripheral compartment) [2]: 4.14 ± 0.72 h⁻¹; K21 (rate constant peripheral to central compartment) [2]: 0.398 ± 0.054 h⁻¹; Q [2]: 0.060 ± 0.008 L/h; Vc [2]: 0.014 ± 0.004 L; Vp [2]: 0.15 ± 0.02 L; Vss [2]: 0.165 L; K21 (rate constant peripheral to central compartment) ([2]; listed as oxaliplatin): 0.398 h⁻¹; K12 (rate constant central to peripheral compartment) ([2]; listed as oxaliplatin solution): 4.14 h⁻¹; Vc ([2]; listed as oxaliplatin solution): 0.014 L; Vp ([2]; listed as oxaliplatin solution): 0.150 L; AUC ([2]; plasma): 3760 ng·h/mL; Alpha_HL (distribution half-life) ([2]; plasma): 8.1 min; CL ([2]; plasma clearance): 0.010 L/h; Beta_HL (elimination half-life) ([2]; plasma, listed as oxaliplatin solution): 13.6 h and 13 h; Cmax ([2]; time 0 hr): 2480 ng/mL; size reduction (%) of spheroids compared to control spheroids at the same day ([3]; 5 μM, Day 0): −1.21%; size reduction (%) of spheroids compared to control spheroids at the same day ([3]; 5 μM, Day 1): 4.52%; size reduction (%) of spheroids compared to control spheroids at the same day ([3]; 5 μM, Day 2): 15.86%; size reduction (%) of spheroids compared to control spheroids at the same day ([3]; 5 μM, Day 3): 24.88%; size reduction (%) of spheroids compared to control spheroids at the same day ([3]; 5 μM, Day 4): 28.73%; size reduction (%) of spheroids compared to control spheroids at the same day ([3]; 25 μM, Day 0): 0.59%; size reduction (%) of spheroids compared to control spheroids at the same day ([3]; 25 μM, Day 1): 16.06%; size reduction (%) of spheroids compared to control spheroids at the same day ([3]; 25 μM, Day 2): 29.27%; size reduction (%) of spheroids compared to control spheroids at the same day ([3]; 25 μM, Day 3): 40.23%; size reduction (%) of spheroids compared to control spheroids at the same day ([3]; 25 μM, Day 4): 45.93%; size reduction (%) of spheroids compared to control spheroids at the same day ([3]; 25 μM, Day 7): 52.04%; size reduction (%) of spheroids compared to control spheroids at the same day ([3]; 50 μM, Day 0): 0.62%; size reduction (%) of spheroids compared to control spheroids at the same day ([3]; 50 μM, Day 1): 16.78%; size reduction (%) of spheroids compared to control spheroids at the same day ([3]; 50 μM, Day 2): 32.53%; size reduction (%) of spheroids compared to control spheroids at the same day ([3]; 50 μM, Day 3): 44.17%; size reduction (%) of spheroids compared to control spheroids at the same day ([3]; 50 μM, Day 4): 48.93%; size reduction (%) of spheroids compared to control spheroids at the same day ([3]; 50 μM, Day 7): 71.67%; appearance of treated spheroids on photographs ([3]; 50 μM, FIG. 7): few cells are still present and formed aggregates
